Data reported in patent publication US4563474A, “Phthalimides and thienopyrrols as drugs” (BASF Aktiengesellschaft, priority 1982, dated 1986).
Read-outs that look alike come from different tables or passages of the source.

What was measured:
[1] = system: orientation hypermotility; test: Sedative action: reduction of orientation hypermotility induced by a new environment; assay type: in vivo, female NMRI mice; conditions: for ED50: po, 0.5 h, read-out: Sedative action (mouse) ED50
Procedure: The test substances were administered orally to groups comprising three female NMRI mice each. The orientation hypermotility induced by a new environment is determined photoelectrically, 30 minutes after administration of the substance, over a period of 30 minutes.
The ED50, ie. the dose which produces 50% reduction in orientation hypermotility compared to untreated control animals, was determined.

[2] = system: reserpine-induced hypothermia; test: Antidepressant action: inhibition of reserpine-induced hypothermia; assay type: in vivo, male mice (Swiss); conditions: for ED50: po, read-out: Antidepressant action (mouse) ED50
Procedure: Antidepressants produce a dose-dependent inhibition of this hypothermia. The test substances were administered orally 60 minutes before reserpine.

[3] = mouse, administered orally, 30 min after administration, over 30 min, 50% reduction in orientation hypermotility
[4] = mouse, administered orally 60 minutes before reserpine (2.15 mg/kg s.c.), 50% inhibition of hypothermia

Compound | ED50 [1, 3] [mg/kg] | ED50 [2, 4] [mg/kg] | ED50 ([1]; Mus musculus) [mg/kg] | ED50 ([2]; Mus musculus) [mg/kg] | weak suppressant effect on the central nervous system (in words) ([1]; known, and also found in the test for sedative action) | antidepressant action (in words) ([2]; up to the maximum test dose of 2,150 mg/kg, administered orally)
CC(=CC#N)CCN1C(=O)c2ccccc2C1=O [Example 18, 4-(Phthalimid-2-yl)-1-cyano-2-methylbut-1-ene] | 29 | 4.5 |  |  |  | 
CN(C)CCCN1c2ccccc2CCc2ccccc21 [Imipramine, reference compound] |  |  | ~100 | 6.8 |  | 
CC(=CC#N)CN1C(=O)c2ccccc2S1(=O)=O [Example 1, 3-(2,3-dihydro-1,1-dioxido-3-oxo-1,2-benzisothiazol-2-yl)-1-cyano-2-methylprop-1-ene] | 50 | 3.5 |  |  |  | 
CC(=CC#N)CN1C(=O)c2ccccc2C1=O [Example 11, 3-(Phthalimid-2-yl)-1-cyano-2-methylprop-1-ene] | 68 | 18.9 |  |  |  | 
CC(=CC#N)CN1C(=O)c2c(Cl)cccc2S1(=O)=O [Example 4, 3-(2,3-Dihydro-4-chloro-1,1-dioxido-3-oxo-1,2-benzisothiazol-2-yl)-1-cyano-2-methylprop-1-ene] | 52 | 3.1 |  |  |  | 
O=C1NCCCC1N1C(=O)c2ccccc2S1(=O)=O (stereo not drawn) [Supidimide, 3-(2,3-dihydro-1,1-dioxido-3-oxo-1,2-benzisothiazol-2-yl)-2-oxopiperidine, reference compound] | 277 | 2150 |  |  | weak suppressant effect on the central nervous system | completely absent
CC(=CC#N)CN1Cc2ccccc2C1=O [Example 12, 3-(Phthalimidin-2-yl)-1-cyano-2-methylprop-1-ene] | 49 | 11.4 |  |  |  | 
CC(=CC#N)CN1C(=O)c2cc(Cl)ccc2S1(=O)=O [Example 6, 3-(2,3-Dihydro-5-chloro-1,1-dioxido-3-oxo-1,2-benzisothiazol-2-yl)-1-cyano-2-methylprop-1-ene] | 100 | 1.1 |  |  |  | 
